Data published in patent US20200129523A1, “SHIP INHIBITION TO INDUCE EXPRESSION OF GRANULOCYTE COLONY STIMULATING FACTOR IN A SUBJECT” (THE RESEARCH FOUNDATION FOR THE STATE UNIVERSITY OF NEW YORK, priority 2014, published 2020).
“Also recorded” adds a separate entry of the source.

What was measured:
SHIP1 = molecular target: T1, SHIP1 (Homo sapiens, UniProt Q92835); experiment: Fluorescence Polarization (FP) assay for SHIP1 enzymatic activity; format: biochemical; conditions: in vitro, hydrochloride
T1 sequence (Q92835 1-1189): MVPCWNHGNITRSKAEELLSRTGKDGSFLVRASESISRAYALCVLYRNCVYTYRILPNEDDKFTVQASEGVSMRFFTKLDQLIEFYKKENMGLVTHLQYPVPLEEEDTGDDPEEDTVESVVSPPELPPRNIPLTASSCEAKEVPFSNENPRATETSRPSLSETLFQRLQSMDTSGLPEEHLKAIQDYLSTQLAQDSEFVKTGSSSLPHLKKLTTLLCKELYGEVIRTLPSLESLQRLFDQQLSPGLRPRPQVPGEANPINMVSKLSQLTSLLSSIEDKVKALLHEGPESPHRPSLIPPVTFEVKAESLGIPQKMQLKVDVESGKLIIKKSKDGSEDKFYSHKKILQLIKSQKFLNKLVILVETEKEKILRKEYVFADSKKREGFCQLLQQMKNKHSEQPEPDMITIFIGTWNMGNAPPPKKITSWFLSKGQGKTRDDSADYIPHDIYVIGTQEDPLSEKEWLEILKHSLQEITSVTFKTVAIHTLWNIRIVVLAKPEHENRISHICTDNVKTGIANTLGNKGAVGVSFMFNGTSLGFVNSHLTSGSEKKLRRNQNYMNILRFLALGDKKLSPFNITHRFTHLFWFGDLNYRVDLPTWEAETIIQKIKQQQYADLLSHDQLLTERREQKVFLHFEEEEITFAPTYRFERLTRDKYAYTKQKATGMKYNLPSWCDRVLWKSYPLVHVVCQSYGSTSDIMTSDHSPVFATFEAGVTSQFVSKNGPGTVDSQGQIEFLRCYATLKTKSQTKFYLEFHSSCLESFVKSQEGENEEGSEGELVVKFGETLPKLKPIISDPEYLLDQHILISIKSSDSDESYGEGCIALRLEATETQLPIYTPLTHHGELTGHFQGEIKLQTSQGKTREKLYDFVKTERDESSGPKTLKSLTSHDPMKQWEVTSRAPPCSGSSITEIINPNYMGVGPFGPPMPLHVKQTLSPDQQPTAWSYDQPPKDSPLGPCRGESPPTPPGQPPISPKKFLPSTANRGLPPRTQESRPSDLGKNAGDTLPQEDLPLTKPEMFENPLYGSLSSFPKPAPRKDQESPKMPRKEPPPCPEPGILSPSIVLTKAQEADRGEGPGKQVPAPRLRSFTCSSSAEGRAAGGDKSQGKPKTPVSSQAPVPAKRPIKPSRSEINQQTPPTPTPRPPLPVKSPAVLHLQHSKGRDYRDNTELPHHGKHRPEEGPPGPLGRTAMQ
From the text: FIGS. 6A-6F: Characterizations of the soluble SHIPi compound K118. FIG. 6A: Fluorescence Polarization (FP) assay comparing SHIPi enzymatic inhibitory activity between 3AC and K118 (IC50˜13.87). In the remaining panels we show for K118 and H2O treated mice (as indicated). FIG. 6B: Representative box and whisker graph depicting serum levels of G-CSF (n=4/group); FIG. 6C: Flow cytometric analysis comparing LT-HSC (LSKFlk2−CD34−), ST-HSC (LSKFlk2−CD34+), and MPP (LSKFlk2^+CD34^+); FIG. 6D: Absolute increase in BM LT-HSC, ST-HSC, and MPP (n=5/group). Primary CRU assay illustrating global and lineage reconstitution one month post transplant; Absolute increase in repopulating units (RU). FIG. 6E: Representative contour plots for PDGFRα^+CD51^+ MSC (after excluding CD45^+, CD31^+, Lin^+ cells); FIG. 6F: Box and whiskers graph illustrating the percentage of PDGFRa^+CD51^+ MSC (n=5/group); Representative images of CFU-F assays used to measure CFU-F frequencies in BM cells of treated mice and Box and whiskers graphs indicating CFU-F frequency in treated mice. All of the above comparisons are representative of two independent experiments.
(FIG. 6A) We sought to determine if this water-soluble K118 SHIPi compound has the capacity to increase G-CSF production within the same five-day injection period as 3AC. […]

PDGFRα+CD51+ MSC = experiment: In vivo MSC immunophenotyping by flow cytometry; parameters: species or system mice; conditions: K118 10 mg/kg i.p. 5 days, vs H2O
Method: PDGFRα^+CD51^+ MSC were detected using methods and reagents as described by Iyer et al.^8 Femurs, tibias, humeri, ulnas, radii, and pelvis were dissected; the bone fragments were cleaned, cut into tiny pieces, and then crushed using a mortar and pestle. The bone chips were then washed several times in HBSS supplemented with 2% heat-inactivated FBS (HBSS/2% HI-FBS) and HBSS only, and then spun at 350×g for 5 mins. The pellet was re-suspended in 3 mg/mL type I collagenase (Worthington) and 15 μg/mL DNAase (Sigma, St. Louis, Mo.) dissolved in HBSS and incubated at 37° C. for 30 min at 110 rpm, this step was repeated twice. Following incubation, mononuclear cells were obtained using a Ficoll gradient ([…] and Histopaque-1077; Sigma, St. Louis, Mo.), and were then used for further analysis. Cells were stained with antibodies as described in Iyer et al.^8

G-CSF = G-CSF ELISA of serum of treated mice; format: in vivo; conditions: K118 10 mg/kg i.p. 5 days, vs H2O; hydrochloride, 10 mg/kg
Method: Peripheral blood was collected in serum separation microvette tubes (SARSTEDT). Tubes were kept at room temperature for 2 hrs. and then spun at 2000×g for 20 min as per manufacturers recommendation. Serum levels of G-CSF in treated mice were determined using a Mouse G-CSF Quantikine Elisa kit (R&D systems).

C[C@@]12CCC[C@H]1[C@@H]1CC[C@H]3C[C@@H](N)CC[C@]3(C)[C@H]1CC2.Cl [K118, 3β-amino-5α-androstane hydrochloride] was tested, and the “SHIP1 inhibitory activity compared with 3AC” value (SHIP1) was “comparable SHIP1 inhibitory activity; also recorded: equal potency”, the “MSC numbers in BM” value (PDGFRα+CD51+ MSC) was “significant expansion” and the “G-CSF production (serum)” value (G-CSF) was “significant increase; also recorded: super-induces”.
